Source: ChEMBL document CHEMBL5149982, “Development of Potent NEDD8-Activating Enzyme Inhibitors Bearing a Pyrimidotriazole Scaffold” (J Med Chem, 2021)
Activity calls are given as the source filed them. No cut-off for these calls is given here.

Tests used:
HCT-116 [1] = test: Induction of apoptosis in human HCT-116 cells assessed as increase in cleaved PARP1 level upto 1 uM incubated for 48 hrs by Western blot analysis; format: functional, cell-based
[2] = AUClast in Sprague-Dawley rat at 1 mg/kg, iv; format: ADME, organism-based; parameters: time 0 - last, dose 1 mg/kg, route iv; settings: in vivo
HT-29 = test: Antiproliferative activity against human HT-29 cells assessed as cell growth inhibition measured after 72 hrs by SRB assay; format: functional, cell-based; settings: HT-29, 72 h
THP-1 = test: Antiproliferative activity against human THP-1 cells assessed as cell growth inhibition measured after 72 hrs by SRB assay; format: functional, cell-based; settings: THP-1, 72 h
DU-145 = test: Antiproliferative activity against human DU-145 cells assessed as cell growth inhibition measured after 72 hrs by SRB assay; format: functional, cell-based; settings: DU-145, 72 h
[3] = Inhibition of UAE (unknown origin) […] assessed as decrease in UbcH10-Ub adduct formation incubated for 2 hrs in presence of L-glutathione and ATP by HTRF assay; parameters: species or system Homo sapiens
MV4-11 = test: Antiproliferative activity against human MV4-11 cells assessed as cell growth inhibition measured after 72 hrs by SRB assay; format: functional, cell-based; settings: MV4-11, 72 h
LNCaP-Clone-FGC = test: Antiproliferative activity against human LNCaP-Clone-FGC cells assessed as cell growth inhibition measured after 72 hrs by SRB assay; format: functional, cell-based
[4] = biological target: T1, NEDD8 activating enzyme (Homo sapiens) (UniProt Q8TBC4+Q13564); test: Inhibition of NAE in human HuTu80 cells mediated neddylation assessed as increase in CHK phosphorylation incubated for 24 hrs by Western blotting analysis; format: cell-based
HCT-116 [5] = test: Induction of apoptosis in human HCT-116 cells assessed as increase in cleaved caspase-3 level upto 1 uM incubated for 48 hrs by Western blot analysis; format: functional, cell-based
HuTu80 = test: Antiproliferative activity against human HuTu80 cells assessed as cell growth inhibition measured after 72 hrs by SRB assay; format: functional, cell-based; settings: HuTu80, 72 h
HCT-116 [6] = test: Antiproliferative activity against human HCT-116 cells assessed as cell growth inhibition by sulforhodamine B assay; format: functional, cell-based
[7] = biological target: T1, NEDD8 activating enzyme (Homo sapiens); test: Inhibition of NAE in human HuTu80 cells mediated neddylation assessed as accumulation of IkappaBalpha (Ser32/36) incubated for 24 hrs by Western blotting analysis; format: cell-based; settings: dose <= 1.0 µM, DDE = dose-dependent effect
[8] = biological target: Voltage-gated inwardly rectifying potassium channel KCNH2 (Homo sapiens, UniProt Q12809); test: Inhibition of hERG channel; format: toxicity
Chain of Voltage-gated inwardly rectifying potassium channel KCNH2 (Q12809 whole entry): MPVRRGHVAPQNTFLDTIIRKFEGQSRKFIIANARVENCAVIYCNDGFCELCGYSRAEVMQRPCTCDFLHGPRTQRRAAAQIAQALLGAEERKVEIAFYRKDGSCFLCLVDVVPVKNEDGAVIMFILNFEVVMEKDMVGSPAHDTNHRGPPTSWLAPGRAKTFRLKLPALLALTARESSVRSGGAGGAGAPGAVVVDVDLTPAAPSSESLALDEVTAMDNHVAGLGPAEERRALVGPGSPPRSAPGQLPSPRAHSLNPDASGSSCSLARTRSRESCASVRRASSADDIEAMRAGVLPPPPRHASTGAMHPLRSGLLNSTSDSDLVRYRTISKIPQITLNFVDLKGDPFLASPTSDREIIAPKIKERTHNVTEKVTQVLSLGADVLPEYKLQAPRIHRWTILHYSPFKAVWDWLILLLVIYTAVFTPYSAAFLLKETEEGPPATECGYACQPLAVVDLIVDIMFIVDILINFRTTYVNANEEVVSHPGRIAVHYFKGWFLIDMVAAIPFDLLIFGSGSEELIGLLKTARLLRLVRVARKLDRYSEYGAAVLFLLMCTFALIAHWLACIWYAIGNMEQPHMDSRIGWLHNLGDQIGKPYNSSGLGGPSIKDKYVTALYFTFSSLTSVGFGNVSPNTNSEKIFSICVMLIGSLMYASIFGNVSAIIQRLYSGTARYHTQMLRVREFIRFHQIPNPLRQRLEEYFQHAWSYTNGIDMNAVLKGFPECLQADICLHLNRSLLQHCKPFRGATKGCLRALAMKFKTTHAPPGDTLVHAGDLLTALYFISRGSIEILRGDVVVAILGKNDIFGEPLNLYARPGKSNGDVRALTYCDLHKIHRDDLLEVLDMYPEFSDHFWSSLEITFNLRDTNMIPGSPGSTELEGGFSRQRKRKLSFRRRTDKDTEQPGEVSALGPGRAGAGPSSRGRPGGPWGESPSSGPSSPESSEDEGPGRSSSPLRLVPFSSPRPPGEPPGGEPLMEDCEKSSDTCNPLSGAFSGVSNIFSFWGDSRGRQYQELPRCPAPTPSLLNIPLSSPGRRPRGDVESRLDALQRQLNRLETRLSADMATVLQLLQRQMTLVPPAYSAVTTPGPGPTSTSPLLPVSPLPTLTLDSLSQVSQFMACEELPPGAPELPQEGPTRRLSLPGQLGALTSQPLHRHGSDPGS

[9] = biological target: T1, NEDD8 activating enzyme (Homo sapiens); test: Inhibition of NAE in human HCT-116 cells mediated neddylation assessed as accumulation of p21 incubated for 24 hrs by Western blotting analysis; format: cell-based; settings: dose <= 1.0 µM, DDE = dose-dependent effect
[10] = Volume of distribution at steady state in Sprague-Dawley rat at 1 mg/kg, iv; format: ADME, organism-based; settings: in vivo, read-out: Vdss
HCT-116 [11] = test: Antitumor activity against human HCT-116 cells xenografted in nude mouse assessed as reduction in tumor growth at 130 mg/kg, sc qd for upto 18 days; format: functional; settings: time <= 18 day
[12] = biological target: T1, NEDD8 activating enzyme (Homo sapiens); test: Inhibition of NAE in human HCT-116 cells mediated neddylation assessed as accumulation of p27 incubated for 24 hrs by Western blotting analysis; format: cell-based; settings: dose <= 1.0 µM, DDE = dose-dependent effect
[13] = biological target: T1, NEDD8 activating enzyme (Homo sapiens); test: Inhibition of NAE in human HCT-116 cells mediated neddylation assessed as increase in CHK phosphorylation incubated for 24 hrs by Western blotting analysis; format: cell-based
[14] = Toxicity in nude mouse xenografted with human HCT-116 cells assessed as effect on body weight at 65 to 130 mg/kg, sc qd for upto 18 days; format: organism-based; settings: in vivo, 432 h, dose 65-130 mg/kg, time < 18 day
[15] = Clearance in Sprague-Dawley rat at 1 mg/kg, iv; format: ADME, organism-based; settings: in vivo
[16] = Observed AUCinfinity in Sprague-Dawley rat at 1 mg/kg, iv; format: ADME, organism-based; parameters: time infinity, dose 1 mg/kg, route iv; settings: in vivo
[17] = biological target: T1, NEDD8 activating enzyme (Homo sapiens); test: Inhibition of NAE in human HuTu80 cells mediated neddylation assessed as accumulation of CDT1 incubated for 24 hrs by Western blotting analysis; format: cell-based; settings: dose <= 1.0 µM, DDE = dose-dependent effect
[18] = Half life in Sprague-Dawley rat at 1 mg/kg, iv; format: ADME, organism-based; settings: in vivo
RKO = test: Antiproliferative activity against human RKO cells assessed as cell growth inhibition measured after 72 hrs by SRB assay; format: functional, cell-based
Jurkat = test: Antiproliferative activity against human Jurkat cells assessed as cell growth inhibition measured after 72 hrs by SRB assay; format: functional, cell-based
[19] = biological target: T1, NEDD8 activating enzyme (Homo sapiens); test: Inhibition of NAE in human HuTu80 cells mediated neddylation assessed as accumulation of gamma-H2AX incubated for 24 hrs by Western blotting analysis; format: cell-based
[20] = biological target: T1, NEDD8 activating enzyme (Homo sapiens); test: Inhibition of NAE in human HuTu80 cells mediated neddylation assessed as accumulation of p27 incubated for 24 hrs by Western blotting analysis; format: cell-based; settings: dose <= 1.0 µM, DDE = dose-dependent effect
HCT-116 [21] = test: Induction of cell cycle arrest in human HCT-116 cells assessed as accumulation of cells at G2/M phase incubated for 24 hrs by PI-staining-based flow cytometry; format: functional
[22] = Observed MRTinfinity in Sprague-Dawley rat at 1 mg/kg, iv; format: ADME, organism-based; settings: in vivo
[23] = biological target: T1, NEDD8 activating enzyme (Homo sapiens); test: Inhibition of NAE in human HCT-116 cells mediated neddylation assessed as accumulation of IkappaBalpha (Ser32/36) incubated for 24 hrs by Western blotting analysis; format: cell-based; settings: dose <= 1.0 µM, DDE = dose-dependent effect
NEDD8 activating enzyme = biological target: T2, NEDD8 activating enzyme (Homo sapiens, UniProt Q8TBC4); test: Inhibition of NAE (unknown origin) mediated neddylation assessed as decrease in NEDD8-Ubcl2 adduct formation incubated for 2 hrs in presence of L-glutathione and ATP by HTRF assay; format: protein-complex assay
T2 sequence (Q8TBC4 whole entry): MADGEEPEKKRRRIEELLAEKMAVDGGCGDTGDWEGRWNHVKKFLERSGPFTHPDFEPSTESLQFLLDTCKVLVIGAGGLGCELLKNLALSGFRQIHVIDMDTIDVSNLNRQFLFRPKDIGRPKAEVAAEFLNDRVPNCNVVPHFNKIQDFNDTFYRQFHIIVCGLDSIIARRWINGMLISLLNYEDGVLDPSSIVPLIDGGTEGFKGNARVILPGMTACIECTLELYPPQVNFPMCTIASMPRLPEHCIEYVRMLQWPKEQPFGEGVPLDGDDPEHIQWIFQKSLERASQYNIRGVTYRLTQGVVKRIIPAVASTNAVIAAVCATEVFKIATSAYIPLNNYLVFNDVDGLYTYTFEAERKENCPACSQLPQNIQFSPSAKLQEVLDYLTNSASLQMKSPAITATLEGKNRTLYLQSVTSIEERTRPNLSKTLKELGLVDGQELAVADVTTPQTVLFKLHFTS
T2 sequence (Q13564 whole entry): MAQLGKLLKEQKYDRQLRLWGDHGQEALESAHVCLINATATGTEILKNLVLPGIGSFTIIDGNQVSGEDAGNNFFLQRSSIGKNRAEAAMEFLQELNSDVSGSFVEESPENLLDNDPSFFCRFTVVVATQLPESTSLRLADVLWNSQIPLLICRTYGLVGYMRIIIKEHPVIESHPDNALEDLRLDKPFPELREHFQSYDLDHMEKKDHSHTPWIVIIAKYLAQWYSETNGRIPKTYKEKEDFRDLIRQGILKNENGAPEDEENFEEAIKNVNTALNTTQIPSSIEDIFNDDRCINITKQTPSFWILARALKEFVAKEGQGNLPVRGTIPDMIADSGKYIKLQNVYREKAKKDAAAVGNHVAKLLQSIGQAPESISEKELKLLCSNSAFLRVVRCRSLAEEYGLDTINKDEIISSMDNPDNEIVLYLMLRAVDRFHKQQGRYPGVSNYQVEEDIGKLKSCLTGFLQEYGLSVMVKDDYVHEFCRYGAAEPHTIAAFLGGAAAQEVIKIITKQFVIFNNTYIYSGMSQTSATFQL

CAPAN-1 = test: Antiproliferative activity against human CAPAN-1 cells assessed as cell growth inhibition measured after 72 hrs by SRB assay; format: functional, cell-based; settings: CAPAN-1, 72 h
[24] = biological target: T1, NEDD8 activating enzyme (Homo sapiens); test: Inhibition of NAE in human HuTu80 cells mediated neddylation assessed as accumulation of p21 incubated for 24 hrs by Western blotting analysis; format: cell-based; settings: dose <= 1.0 µM, DDE = dose-dependent effect
HCT-116 [25] = test: Induction of cell cycle arrest in human HCT-116 cells assessed as accumulation of cells at S phase at higher concentration incubated for 24 hrs by PI-staining-based flow cytometry; format: functional
HCT-116 [26] = test: Induction of cell cycle arrest in human HCT-116 cells assessed as increase in > 4N cells at higher concentration incubated for 24 hrs by PI-staining-based flow cytometry; format: functional
[27] = biological target: T1, NEDD8 activating enzyme (Homo sapiens); test: Inhibition of NAE in human HCT-116 cells mediated neddylation assessed as accumulation of gamma-H2AX incubated for 24 hrs by Western blotting analysis; format: cell-based
HCT-116 [28] = test: Antiproliferative activity against human HCT-116 cells assessed as cell growth inhibition measured after 72 hrs by SRB assay; format: functional, cell-based; settings: HCT-116, 72 h
[29] = biological target: T1, NEDD8 activating enzyme (Homo sapiens); test: Inhibition of NAE in human HCT-116 cells mediated neddylation assessed as accumulation of CDT1 incubated for 24 hrs by Western blotting analysis; format: cell-based; settings: dose <= 1.0 µM, DDE = dose-dependent effect
HCT-116 [30] = test: Induction of apoptosis in human HCT-116 cells assessed as increase in cleaved caspase-7 level upto 1 uM incubated for 48 hrs by Western blot analysis; format: functional, cell-based

For `COC(=O)N1CCC2(CC1)C[C@H](Nc1ncnc3c1nnn3[C@@H]1C[C@@H](COS(N)(=O)=O)[C@@H](O)C1)c1ccccc12`, the Activity (HCT-116 [1]) was “Active”, the AUC(0-t) [2] was 560 ng·h/mL and the IC50 (HT-29) was 407 nM. The IC50 (THP-1) was 353 nM, the IC50 (DU-145) was 482 nM and the IC50 [3] was 66.8 nM. For the same compound, the IC50 (MV4-11) was 106 nM, the IC50 (LNCaP-Clone-FGC) was 264 nM and the inhibition [4] was “Active”. The Activity (HCT-116 [5]) was “Active”, the IC50 (HuTu80) was 40 nM and the IC50 (HCT-116 [6]) was 36.2 nM. For the same compound, the inhibition [7] was “Dde”, the IC50 [8] was > 40000 nM and the inhibition [9] was “Dde”. The Vd [10] was 1.78 L/kg, the T/C (HCT-116 [11]) was 0.19 and the inhibition [12] was “Dde”. The inhibition [13] was “Active”, the Activity [14] was “Non-Toxic” and the clearance [15] was 29.7 mL/min/kg. For the same compound, the AUC(0-inf) [16] was 563 ng·h/mL, the inhibition [17] was “Dde” and the half-life [18] was 42.6 min. For the same compound, the IC50 (RKO) was 286 nM, the IC50 (Jurkat) was 482 nM and the inhibition [19] was “Active”. For the same compound, the inhibition [20] was “Dde”, the Activity (HCT-116 [21]) was “Active” and the MRT inf [22] was 60 min. For the same compound, the inhibition [23] was “Dde”, the IC50 (NEDD8 activating enzyme) was 0.55 nM and the IC50 (CAPAN-1) was 101 nM. The inhibition [24] was “Dde”, the Activity (HCT-116 [25]) was “Active” and the Activity (HCT-116 [26]) was “Active”. For the same compound, the inhibition [27] was “Active”, the IC50 (HCT-116 [28]) was 33.9 nM and the inhibition [29] was “Dde”. The Activity (HCT-116 [30]) was “Active”.
